≈ marks a conversion by molar mass, not a printed value. Where two headings read alike, the source gives them in different places.
Columns and labels:
[1] = tested on: Candida ATCC12201; assay: Minimum inhibitory concentration on fungi; type: cell-based; conditions: Candida ATCC12201, RPMI1640, 37 °C, 48 hours
Protocol: The bacteria were cultured in the RPMI1640 and added to each of the holes of the test plate at approximately 200 CFU/mL. The cultures were cultivated at 37 °C for 48 hours, and the growth of the bacteria was visually confirmed, and the minimum concentration without the growth of the bacteria was referred as MIC. Candida ATCC12201 was used as the fungi. […] The minimum inhibitory concentration (MIC) was measured against Candida.

[2] = tested on: methicillin-resistant Staphylococcus aureus N3115; assay: Minimum inhibitory concentration on bacteria; conditions: 20 h, read-out: minimum inhibitory concentration (MIC)
Protocol: (§1) First, 100 μL per hole of a 96-hole test plate was prepared using a Mueller Hinton medium (CAMHB) (and blood added as needed) supplemented with 20 mg/L of Ca^2+ and 10 mg/L of Mg^2+ to give a 2-fold dilution series. […] Each bacterium was cultured in CAMHB (blood added as needed) and added to each of the holes of the test plate at approximately 10000 CFU/mL. The cultures were cultivated at 37° C. for 20 hours, and growth of the bacteria was visually confirmed, and the lowest concentration without growth of the bacteria was defined as the minimum inhibitory concentration (MIC: Minimum Inhibitory Concentration).
(§2) As the bacteria, methicillin-sensitive Staphylococcus aureus 209P, methicillin-resistant Staphylococcus aureus N3115, methicillin-resistant Staphylococcus aureus OM584, vancomycin moderate resistant Staphylococcus aureus Mu50, Pseudomonas aeruginosa wild strain PAO1, Pseudomonas aeruginosa resistance gene quadruple disruption strain YM64, Fecaris ATCC29212, Vancomycin-resistant Fecaris ATCC51299, and Vancomycin-resistant Fecaris NCTC12201 were used.

[3] = tested on: vancomycin moderate resistant Staphylococcus aureus Mu50; assay: Minimum inhibitory concentration on bacteria; conditions: 20 h, read-out: minimum inhibitory concentration (MIC)
Protocol: (§3) First, a method for measuring the minimum inhibitory concentration on the bacteria will be described. First, 100 μL per hole of a 96-hole test plate was prepared using a Mueller Hinton medium (CAMHB) (and blood added as needed) supplemented with 20 mg/L of Ca^2+ and 10 mg/L of Mg^2+ to give a 2-fold dilution series. […] Each bacterium was cultured in CAMHB (blood added as needed) and added to each of the holes of the test plate at approximately 10000 CFU/mL. The cultures were cultivated at 37° C. for 20 hours, and growth of the bacteria was visually confirmed, and the lowest concentration without growth of the bacteria was defined as the minimum inhibitory concentration (MIC: Minimum Inhibitory Concentration).
as §2
(§4) Minimum inhibitory concentrations (MIC) were measured against drug-sensitive bacteria and drug-resistant bacteria.

[4] = tested on: methicillin-resistant Staphylococcus aureus OM584; assay: Minimum inhibitory concentration on bacteria; conditions: 20 h, read-out: minimum inhibitory concentration (MIC)
Protocol: as §3, §2, §4

[5] = tested on: Pseudomonas aeruginosa wild strain PAO1; assay: Minimum inhibitory concentration on bacteria; conditions: PAO1, 20 h, read-out: minimum inhibitory concentration (MIC)
[6] = tested on: Fecaris ATCC29212; assay: Minimum inhibitory concentration on bacteria; conditions: 20 h, read-out: minimum inhibitory concentration (MIC)
Protocol: as §3, §2, §4

[7] = tested on: Vancomycin-resistant Fecaris NCTC12201; assay: Minimum inhibitory concentration on bacteria; conditions: 20 h, read-out: minimum inhibitory concentration (MIC)
Protocol: as §1, §2

[8] = tested on: Vancomycin-resistant Fecaris ATCC51299; assay: Minimum inhibitory concentration on bacteria; conditions: 20 h, read-out: minimum inhibitory concentration (MIC)
Protocol: as §3, §2, §4

[9] = tested on: methicillin-sensitive Staphylococcus aureus 209P; assay: Minimum inhibitory concentration on bacteria; conditions: 20 h, read-out: minimum inhibitory concentration (MIC)
Protocol: as §1, §2

[10] = Residual amount on SUS substrate after ultrasonic cleaning in water; type: physicochemical; conditions: 125 μg/cm^2 applied on SUS substrate
Protocol: First, chlorhexidine was dissolved in acetone so as to be 1 mg/mL. […] Chlorhexidine gluconate was dissolved in acetone so as to be 1 mg/mL. […] Subsequently, the concentration of chlorhexidine and the concentration of chlorhexidine gluconate eluted in water were measured by UV-Vis (colorimetric method), and an amount of chlorhexidine and an amount of chlorhexidine gluconate remaining on the substrate were back-calculated from the concentration.

[11] = tested on: sheep defibrillated blood (red blood cells); conditions: 30 min, pH 7.4
Protocol: 25 μL of sheep defibrillated blood, a Tyrode solution (NaCl 137 mM, KCl 2.7 mM, CaCl2) 1.0 mM, HEPES 10 mM (pH7.4)), and chlorhexidine gluconate or chlorhexidine solution were mixed. A mixture of 25 μL of sheep defibrillated blood and 975 μL of a Tyrode solution was used as a control, and a mixture of 25 μL of sheep defibrillated blood and 975 μL of purified water was used as a complete hemolysis. The mixtures were left standing at 37° C. for 30 minutes. Thereafter, the mixed liquid is centrifuged, and the supernatant is collected. Absorbance at 545 nm was measured. A hemolysis rate was calculated according to the following formula.

[12] = Calcein efflux rate, bacterial composition artificial membrane (liposomes); conditions: for Calcein Efflux Rate (%) Bacterial Composition Artificial Membrane: 30° C., 30 minutes
[13] = Calcein efflux rate, viral composition artificial membrane (liposomes); conditions: for Calcein Efflux Rate (%) Virus Composition Artificial Membrane: 30° C., 30 minutes
[14] = 2 minutes ultrasonic cleaning in 60 ml of water at 25° C.
[15] = 10 minutes ultrasonic cleaning in 60 ml of water at 25° C.

Compound | MIC [1] [µg/mL] | MIC [2] [µg/mL] | MIC [3] [µg/mL] | MIC [4] [µg/mL] | MIC [5] [µg/mL] | MIC [6] [µg/mL] | MIC [7] [µg/mL] | MIC [8] [µg/mL] | MIC [9] [µg/mL] | residual amount on substrate [10, 14] [μg/cm^2] | residual amount on substrate [10, 15] | further results
OC(Cn1cncn1)(Cn1cncn1)c1ccc(F)cc1F [fluconazole] | 0.25 (≈ 0.816 µM) |  |  |  |  |  |  |  |  |  |  | 
CCn1cc(C(=O)O)c(=O)c2cc(F)c(N3CCNCC3)cc21 [Norfloxacin, norfloxacin] |  | 4 (≈ 12.5 µM) | ≥ 64 | ≥ 64 | 2 (≈ 6.26 µM) | 16 (≈ 50.1 µM) | 16 (≈ 50.1 µM) | 8 (≈ 25.1 µM) | 2 (≈ 6.26 µM) |  |  | 
[H]/N=C(\N/C(=N/[H])NCCCCCCNC(=N)NC(=N)Nc1ccc(Cl)cc1)Nc1ccc(Cl)cc1 [chlorhexidine] | 2 (≈ 3.96 µM) | 1 (≈ 1.98 µM) | 2 (≈ 3.96 µM) | 4 (≈ 7.91 µM) | 16 (≈ 31.7 µM) | 2 (≈ 3.96 µM) | 4 (≈ 7.91 µM) | 4 (≈ 7.91 µM) | 0.5 (≈ 0.989 µM) | 45.4 | 43.0 μg/cm^2 | hemolytic activity ([11]; 0.028 %): 11.7%; hemolytic activity ([11]; 0.056 %): 30.2%; Calcein Efflux Rate (%) Bacterial Composition Artificial Membrane ([12]; 1 μM (0.51 μg/mL)): −2.7%; Calcein Efflux Rate (%) Bacterial Composition Artificial Membrane ([12]; 2 μM (1.01 μg/mL)): 2.8%; Calcein Efflux Rate (%) Bacterial Composition Artificial Membrane ([12]; 4 μM (2.02 μg/mL)): 11.5%; Calcein Efflux Rate (%) Bacterial Composition Artificial Membrane ([12]; 8 μM (4.04 μg/mL)): 54.0%; Calcein Efflux Rate (%) Bacterial Composition Artificial Membrane ([12]; 16 μM (8.09 μg/mL)): 91.9%; Calcein Efflux Rate (%) Bacterial Composition Artificial Membrane ([12]; 32 μM (16.17 μg/mL)): 95.1%; Calcein Efflux Rate (%) Bacterial Composition Artificial Membrane ([12]; 64 μM (32.35 μg/mL)): 92.9%; Calcein Efflux Rate (%) Bacterial Composition Artificial Membrane ([12]; 128 μM (64.70 μg/mL)): 104.5%; concentration at which calcein was still found to elute ([12]; bacterial composition artificial membrane): 1.01 µg/mL; Calcein Efflux Rate (%) Virus Composition Artificial Membrane ([13]; 1 μM (0.51 μg/mL)): 6.5%; Calcein Efflux Rate (%) Virus Composition Artificial Membrane ([13]; 2 μM (1.01 μg/mL)): 15.9%; Calcein Efflux Rate (%) Virus Composition Artificial Membrane ([13]; 4 μM (2.02 μg/mL)): 39.8%; Calcein Efflux Rate (%) Virus Composition Artificial Membrane ([13]; 8 μM (4.04 μg/mL)): 68.5%; Calcein Efflux Rate (%) Virus Composition Artificial Membrane ([13]; 16 μM (8.09 μg/mL)): 85.7%; Calcein Efflux Rate (%) Virus Composition Artificial Membrane ([13]; 32 μM (16.17 μg/mL)): 91.6%; Calcein Efflux Rate (%) Virus Composition Artificial Membrane ([13]; 64 μM (32.35 μg/mL)): 108.3%; Calcein Efflux Rate (%) Virus Composition Artificial Membrane ([13]; 128 μM (64.70 μg/mL)): 120.9%; concentration at which calcein was still confirmed to elute ([13]; virus composition artificial membrane): 0.51 µg/mL
[H]/N=C(\N/C(=N/[H])NCCCCCCNC(=N)NC(=N)Nc1ccc(Cl)cc1)Nc1ccc(Cl)cc1 [chlorhexidine gluconate] |  |  |  |  |  |  |  |  |  | 12.7 | could not be calculated | hemolytic activity ([11]; 0.05 %): 9.3%; hemolytic activity ([11]; 0.1 %): 75.8%

— patent US20240215584A1, “ARTICLE HAVING ANTIVIRAL PROPERTIES, ARTICLE HAVING ANTIMICROBIAL PROPERTIES, AND ARTICLE HAVING ANTIFUNGAL PROPERTIES” (NATIONAL INSTITUTE OF ADVANCED INDUSTRIAL SCIENCE AND …, priority 2021, published 2024)
